Experimental data taken from publication PMC5218480 (PLoS ONE, 2017).

Tested on: MV-4-11 cells
Assay: Gene expression microarray analysis (Affymetrix PrimeView) and GSEA
Format: cell-based, human
Set-up: RFU PODN (11730768_x_at) / Fold change /veh PODN (11730768_x_at) / RFU LINC00158 (11744669_a_at) / Fold change /veh LINC00158 (11744669_a_at) / RFU DUSP10 (11751237_a_at) / Fold change /veh DUSP10 (11751237_a_at) / RFU ID3 (11757404_x_at) / Fold change /veh ID3 (11757404_x_at) / RFU PLEKHG5 (11737974_s_at) / Fold change /veh PLEKHG5 (11737974_s_at) / RFU LRRC4B (11730491_at) / Fold change /veh LRRC4B (11730491_at) / RFU GIMAP4 (11747438_a_at) / Fold change /veh GIMAP4 (11747438_a_at) / RFU KRT8 (11758183_x_at) / Fold change /veh KRT8 (11758183_x_at) / RFU CNN1 (11734310_a_at) / Fold change /veh CNN1 (11734310_a_at) / RFU VPS37D (11726825_at) / Fold change /veh VPS37D (11726825_at) / RFU C10orf10 (11716522_x_at) / Fold change /veh C10orf10 (11716522_x_at) / RFU KIR2DL2 /// KIR2DL4 /// KIR2DL5A /// KIR2DL5B /// KIR2DS1 /// KIR2DS2 /// KIR2DS3 /// KIR2DS4 /// KIR3DL3 /// KIR3DL3 /// KIR3DS1 (11738374_at) / Fold change /veh KIR2DL2 /// KIR2DL4 /// KIR2DL5A /// KIR2DL5B /// KIR2DS1 /// KIR2DS2 /// KIR2DS3 /// KIR2DS4 /// KIR3DL3 /// KIR3DL3 /// KIR3DS1 (11738374_at) / RFU C1QL1 (11718748_at) / Fold change /veh C1QL1 (11718748_at) / RFU TMPRSS4 (11747572_a_at) / Fold change /veh TMPRSS4 (11747572_a_at) / RFU HAMP (11756126_x_at) / Fold change /veh HAMP (11756126_x_at) / RFU RNFT2 (11725882_a_at) / Fold change /veh RNFT2 (11725882_a_at) / RFU NR4A2 (11747474_a_at) / Fold change /veh NR4A2 (11747474_a_at) / RFU ABCC12 (11746883_a_at) / Fold change /veh ABCC12 (11746883_a_at) / RFU TMEM136 (11760407_x_at) / Fold change /veh TMEM136 (11760407_x_at) / RFU CLDN22 /// WWC2 (11732394_at) / Fold change /veh CLDN22 /// WWC2 (11732394_at) / RFU HLA-DPB1 (11760878_x_at) / Fold change /veh HLA-DPB1 (11760878_x_at) / RFU SPINT1 (11716480_a_at) / Fold change /veh SPINT1 (11716480_a_at) / RFU GAP43 (11754022_s_at) / Fold change /veh GAP43 (11754022_s_at) / RFU A4GNT (11735810_at) / Fold change /veh A4GNT (11735810_at) / RFU PRB3 (11715151_x_at) / Fold change /veh PRB3 (11715151_x_at) / RFU TUBB4B (11761932_at) / Fold change /veh TUBB4B (11761932_at) / RFU CAPN14 (11732068_a_at) / Fold change /veh CAPN14 (11732068_a_at) / RFU TMCC2 (11721928_a_at) / Fold change /veh TMCC2 (11721928_a_at) / RFU IRGQ (11745062_a_at) / Fold change /veh IRGQ (11745062_a_at) / RFU FAM174B (11720279_a_at) / Fold change /veh FAM174B (11720279_a_at) / RFU TMPRSS4 (11748680_a_at) / Fold change /veh TMPRSS4 (11748680_a_at) / RFU FAM212B (11763350_a_at) / Fold change /veh FAM212B (11763350_a_at) / RFU PLEKHG5 (11743358_a_at) / Fold change /veh PLEKHG5 (11743358_a_at) / RFU ZSCAN30 (11745921_a_at) / Fold change /veh ZSCAN30 (11745921_a_at) / RFU CMKLR1 (11741424_a_at) / Fold change /veh CMKLR1 (11741424_a_at) / RFU LOC101060620 /// MAPK8IP1 (11723275_at) / Fold change /veh LOC101060620 /// MAPK8IP1 (11723275_at) / RFU SPTSSB (11747773_x_at) / Fold change /veh SPTSSB (11747773_x_at) / RFU PRSS12 (11739890_at) / Fold change /veh PRSS12 (11739890_at) / RFU BIN1 (11741810_x_at) / Fold change /veh BIN1 (11741810_x_at) / RFU WNT11 (11732464_a_at) / Fold change /veh WNT11 (11732464_a_at) / RFU C10orf10 (11716521_a_at) / Fold change /veh C10orf10 (11716521_a_at) / RFU C5orf56 (11738089_at) / Fold change /veh C5orf56 (11738089_at) / RFU CYB561 (11721691_x_at) / Fold change /veh CYB561 (11721691_x_at) / RFU ANKRD19P (11752326_a_at) / Fold change /veh ANKRD19P (11752326_a_at) / RFU OR2T12 /// OR2T33 /// OR2T8 (11738714_s_at) / Fold change /veh OR2T12 /// OR2T33 /// OR2T8 (11738714_s_at) / RFU VCAN (11748164_a_at) / Fold change /veh VCAN (11748164_a_at) / RFU JSRP1 (11732532_at) / Fold change /veh JSRP1 (11732532_at) / RFU KRTAP10-11 (11738290_x_at) / Fold change /veh KRTAP10-11 (11738290_x_at) / RFU MYO3A (11730013_a_at) / Fold change /veh MYO3A (11730013_a_at) / RFU EBF3 (11725865_a_at) / Fold change /veh EBF3 (11725865_a_at) / RFU CAMK2N1 (11719241_x_at) / Fold change /veh CAMK2N1 (11719241_x_at) / RFU C5orf56 (11738088_a_at) / Fold change /veh C5orf56 (11738088_a_at) / RFU OLFML3 (11715873_a_at) / Fold change /veh OLFML3 (11715873_a_at) / RFU LOC100653217 /// NTM (11731650_a_at) / Fold change /veh LOC100653217 /// NTM (11731650_a_at) / RFU MAPK11 (11762145_a_at) / Fold change /veh MAPK11 (11762145_a_at) / RFU FIZ1 (11724087_x_at) / Fold change /veh FIZ1 (11724087_x_at) / RFU OASL (11726364_x_at) / Fold change /veh OASL (11726364_x_at) / RFU SOX15 (11748057_x_at) / Fold change /veh SOX15 (11748057_x_at) / RFU CD79A (11719716_a_at) / Fold change /veh CD79A (11719716_a_at) / RFU HIST1H1D (11736915_at) / Fold change /veh HIST1H1D (11736915_at) / RFU CASKIN2 (11723855_a_at) / Fold change /veh CASKIN2 (11723855_a_at) / RFU LOC730098 (11760151_x_at) / Fold change /veh LOC730098 (11760151_x_at) / RFU OR4N2 (11742367_at) / Fold change /veh OR4N2 (11742367_at) / RFU PRRT2 (11749266_a_at) / Fold change /veh PRRT2 (11749266_a_at) / RFU SNX32 (11753110_a_at) / Fold change /veh SNX32 (11753110_a_at) / RFU CDHR5 (11726645_a_at) / Fold change /veh CDHR5 (11726645_a_at) / RFU RCAN1 (11760418_a_at) / Fold change /veh RCAN1 (11760418_a_at) / RFU FAM167A (11723789_a_at) / Fold change /veh FAM167A (11723789_a_at) / RFU FAM26E (11764081_at) / Fold change /veh FAM26E (11764081_at) / RFU ISYNA1 (11749810_s_at) / Fold change /veh ISYNA1 (11749810_s_at) / RFU ACY1 (11761880_at) / Fold change /veh ACY1 (11761880_at) / RFU 11764098_at / Fold change /veh 11764098_at / RFU SAMD14 (11745864_x_at) / Fold change /veh SAMD14 (11745864_x_at) / RFU NPB (11741838_a_at) / Fold change /veh NPB (11741838_a_at) / RFU TMPRSS6 (11731388_a_at) / Fold change /veh TMPRSS6 (11731388_a_at) / RFU KRTAP10-2 (11738614_at) / Fold change /veh KRTAP10-2 (11738614_at) / RFU ARHGAP8 /// PRR5-ARHGAP8 (11727945_x_at) / Fold change /veh ARHGAP8 /// PRR5-ARHGAP8 (11727945_x_at) / RFU KRTAP5-7 /// NADSYN1 (11734609_at) / Fold change /veh KRTAP5-7 /// NADSYN1 (11734609_at) / RFU RASL12 (11751679_a_at) / Fold change /veh RASL12 (11751679_a_at) / RFU CDKN2B (11736163_a_at) / Fold change /veh CDKN2B (11736163_a_at) / RFU PRF1 (11729649_at) / Fold change /veh PRF1 (11729649_at) / RFU, ZNF638 /// ZNF638-IT1 / Fold change vs veh, ZNF638 /// ZNF638-IT1 / RFU, PANK3 / Fold change vs veh, PANK3 / RFU, SH3YL1 / Fold change vs veh, SH3YL1 / RFU, ZEB2 / Fold change vs veh, ZEB2 / RFU, NRIP1 / Fold change vs veh, NRIP1 / RFU, PTTG1IP / Fold change vs veh, PTTG1IP / RFU, CAPN2 / Fold change vs veh, CAPN2 / RFU, MED14 / Fold change vs veh, MED14 / RFU, SNORA58 / Fold change vs veh, SNORA58 / RFU, C1orf63 / Fold change vs veh, C1orf63 / RFU, LRRFIP1 / Fold change vs veh, LRRFIP1 / RFU, NDUFAF7 / Fold change vs veh, NDUFAF7 / RFU, SLC12A2 / Fold change vs veh, SLC12A2 / RFU, IBTK / Fold change vs veh, IBTK / RFU, ESF1 / Fold change vs veh, ESF1 / Fold change vs veh, TMEM50B / RFU, TAOK1 / Fold change vs veh, TAOK1 / RFU, ACBD3 / Fold change vs veh, ACBD3 / RFU, TMA16 / Fold change vs veh, TMA16 / RFU, RWDD3 / Fold change vs veh, RWDD3 / RFU, BCAT1 / Fold change vs veh, BCAT1 / RFU, EDEM3 / Fold change vs veh, EDEM3 / RFU, TMEM33 / Fold change vs veh, TMEM33 / RFU, WDR75 / Fold change vs veh, WDR75 / RFU, AHCTF1 / Fold change vs veh, AHCTF1 / RFU, TFRC / Fold change vs veh, TFRC / RFU, ZDHHC17 / Fold change vs veh, ZDHHC17 / RFU, NOM1 / Fold change vs veh, NOM1 / RFU, ARL8B / Fold change vs veh, ARL8B / RFU, ZBTB11 / Fold change vs veh, ZBTB11 / RFU, TAMM41 / Fold change vs veh, TAMM41 / RFU, KIAA1704 /// LOC100996395 / Fold change vs veh, KIAA1704 /// LOC100996395 / RFU, ING1 / Fold change vs veh, ING1 / RFU, TRMT61B / Fold change vs veh, TRMT61B / RFU, FUBP3 / Fold change vs veh, FUBP3 / RFU, TP53 / Fold change vs veh, TP53 / RFU, TNKS2 / Fold change vs veh, TNKS2 / RFU, ZFP14 / Fold change vs veh, ZFP14 / RFU, ACTR2 / Fold change vs veh, ACTR2 / RFU, PPP3R1 / Fold change vs veh, PPP3R1 / RFU, PIK3R1 / Fold change vs veh, PIK3R1 / RFU, HNRNPA1 / Fold change vs veh, HNRNPA1 / RFU, RNF170 / Fold change vs veh, RNF170 / RFU, ZNF28 / Fold change vs veh, ZNF28 / RFU, RNGTT / Fold change vs veh, RNGTT / RFU, OGT / Fold change vs veh, OGT / RFU, BRD1 / Fold change vs veh, BRD1 / RFU, MARS / Fold change vs veh, MARS / RFU, ZNF655 / Fold change vs veh, ZNF655 / RFU, FAHD1 / Fold change vs veh, FAHD1 / RFU, BDP1 / Fold change vs veh, BDP1 / RFU, LRRCC1 / Fold change vs veh, LRRCC1 / RFU, ARID1A / Fold change vs veh, ARID1A / RFU, ZNF146 / Fold change vs veh, ZNF146 / RFU, ZNF330 / Fold change vs veh, ZNF330 / RFU, GPN3 / Fold change vs veh, GPN3 / RFU, C9orf123 / Fold change vs veh, C9orf123 / RFU, N4BP2L2 / Fold change vs veh, N4BP2L2 / RFU, ARFIP1 / Fold change vs veh, ARFIP1 / RFU, FAM179B / Fold change vs veh, FAM179B / RFU, BCL10 / Fold change vs veh, BCL10 / RFU, UHRF1BP1L / Fold change vs veh, UHRF1BP1L / RFU, BET1 / Fold change vs veh, BET1 / RFU, CNOT2 / Fold change vs veh, CNOT2 / RFU, ZNF268 / Fold change vs veh, ZNF268 / Fold change vs veh, ZNF507 / RFU, DGCR2 / Fold change vs veh, DGCR2 / RFU, WDSUB1 / Fold change vs veh, WDSUB1 / Fold change vs veh, HSP90B1 /// MIR3652 / RFU, ADSS / Fold change vs veh, ADSS / RFU, GK / Fold change vs veh, GK / RFU, ZNF148 / Fold change vs veh, ZNF148 / RFU, TAF9 / Fold change vs veh, TAF9 / RFU, SLC1A5 / Fold change vs veh, SLC1A5 / RFU, SLMO2 / Fold change vs veh, SLMO2 / RFU, ABCC4 / Fold change vs veh, ABCC4 / RFU, LOC101060439 /// RAP1B / Fold change vs veh, LOC101060439 /// RAP1B / RFU, RFX7 / Fold change vs veh, RFX7 / RFU, GTPBP10 / Fold change vs veh, GTPBP10 / RFU, CNEP1R1 / Fold change vs veh, CNEP1R1 / RFU, BIVM-ERCC5 /// ERCC5 / Fold change vs veh, BIVM-ERCC5 /// ERCC5 / RFU, ILF3 / Fold change vs veh, ILF3 / RFU 11762660_at / Fold change /veh 11762660_at / RFU VCAN (11757783_s_at) / Fold change /veh VCAN (11757783_s_at) / RFU DDX43 (11728927_at) / Fold change /veh DDX43 (11728927_at) / RFU KRT8 (11758188_x_at) / Fold change /veh KRT8 (11758188_x_at) / RFU NKD1 (11759106_at) / Fold change /veh NKD1 (11759106_at) / RFU SRD5A1 (11742802_a_at) / Fold change /veh SRD5A1 (11742802_a_at) / RFU TPSAB1 /// TPSB2 (11721975_s_at) / Fold change /veh TPSAB1 /// TPSB2 (11721975_s_at) / RFU GSTM3 (11746129_a_at) / Fold change /veh GSTM3 (11746129_a_at) / RFU IL23R (11737362_x_at) / Fold change /veh IL23R (11737362_x_at) / RFU TMEM51 (11727254_a_at) / Fold change /veh TMEM51 (11727254_a_at) / RFU PIWIL2 (11732686_x_at) / Fold change /veh PIWIL2 (11732686_x_at) / RFU ORM1 (11744905_x_at) / Fold change /veh ORM1 (11744905_x_at) / RFU CCDC152 (11743942_at) / Fold change /veh CCDC152 (11743942_at) / RFU ECM1 (11717891_a_at) / Fold change /veh ECM1 (11717891_a_at) / RFU IL23R (11748794_a_at) / Fold change /veh IL23R (11748794_a_at) / RFU TNFAIP8L3 (11732012_x_at) / Fold change /veh TNFAIP8L3 (11732012_x_at) / RFU MBOAT4 (11741988_at) / Fold change /veh MBOAT4 (11741988_at) / RFU 11764193_at / Fold change /veh 11764193_at / RFU TMEM53 (11763286_at) / Fold change /veh TMEM53 (11763286_at) / RFU MAGEB2 (11727129_at) / Fold change /veh MAGEB2 (11727129_at) / RFU TMEM200A (11744735_a_at) / Fold change /veh TMEM200A (11744735_a_at) / RFU CCDC152 (11751479_a_at) / Fold change /veh CCDC152 (11751479_a_at) / RFU FAM211A (11726209_a_at) / Fold change /veh FAM211A (11726209_a_at) / RFU RGS16 (11746705_a_at) / Fold change /veh RGS16 (11746705_a_at) / RFU VCAN (11755009_s_at) / Fold change /veh VCAN (11755009_s_at) / RFU RHOB (11743442_s_at) / Fold change /veh RHOB (11743442_s_at) / RFU RGS16 (11720943_a_at) / Fold change /veh RGS16 (11720943_a_at) / RFU RGS16 (11720944_at) / Fold change /veh RGS16 (11720944_at) / RFU, VPS4B / Fold change vs veh, VPS4B / RFU, CREB1 / Fold change vs veh, CREB1 / RFU, DNAJC13 / Fold change vs veh, DNAJC13 / RFU, GNAQ / Fold change vs veh, GNAQ / RFU, CDK5R1 / Fold change vs veh, CDK5R1 / RFU, ZRANB3 / Fold change vs veh, ZRANB3 / RFU, CUL4A / Fold change vs veh, CUL4A / RFU, CCNY / Fold change vs veh, CCNY / RFU, UFL1 / Fold change vs veh, UFL1 / RFU, COG3 / Fold change vs veh, COG3 / RFU, DIAPH2 / Fold change vs veh, DIAPH2 / RFU, SKA2 / Fold change vs veh, SKA2 / RFU, AFF3 / Fold change vs veh, AFF3 / RFU, LMF1 / Fold change vs veh, LMF1 / RFU, IPO11 / Fold change vs veh, IPO11 / RFU, DFFB / Fold change vs veh, DFFB / RFU, FOXP1 / Fold change vs veh, FOXP1 / RFU, CARD8 / Fold change vs veh, CARD8 / RFU, STRN3 / Fold change vs veh, STRN3 / RFU, ADK / Fold change vs veh, ADK / RFU, RASSF2 / Fold change vs veh, RASSF2 / RFU, WIPF1 / Fold change vs veh, WIPF1 / RFU, LARP1B / Fold change vs veh, LARP1B / RFU, RASA1 / Fold change vs veh, RASA1 / RFU, RB1 / Fold change vs veh, RB1 / RFU, PPFIA1 / Fold change vs veh, PPFIA1 / RFU, MAT2A / Fold change vs veh, MAT2A / RFU, CCT5 / Fold change vs veh, CCT5 / RFU, WDR92 / Fold change vs veh, WDR92 / RFU, CUX1 / Fold change vs veh, CUX1 / RFU, TTC7A / Fold change vs veh, TTC7A / RFU, TMEM135 / Fold change vs veh, TMEM135 / RFU, DEPTOR / Fold change vs veh, DEPTOR / RFU, CPM / Fold change vs veh, CPM / RFU, DNAJB6 / Fold change vs veh, DNAJB6 / RFU, CACNA2D3 / Fold change vs veh, CACNA2D3 / RFU, DTX4 / Fold change vs veh, DTX4 / RFU, TFCP2 / Fold change vs veh, TFCP2 / RFU, GMCL1 /// GMCL1P1 / Fold change vs veh, GMCL1 /// GMCL1P1 / RFU, AEBP2 / Fold change vs veh, AEBP2 / RFU, SNHG1 /// SNORD22 /// SNORD25 /// SNORD26 /// SNORD27 /// SNORD28 /// SNORD29 /// SNORD31 / Fold change vs veh, SNHG1 /// SNORD22 /// SNORD25 /// SNORD26 /// SNORD27 /// SNORD28 /// SNORD29 /// SNORD31 / Fold change (Aza/veh), C12orf56 (ProbeSet 11735607_a_at) / Fold change (ACY-1035/veh), C12orf56 (ProbeSet 11735607_a_at) / Fold change (Aza/veh), FGFR1OP (ProbeSet 11751329_s_at) / Fold change (ACY-1035/veh), FGFR1OP (ProbeSet 11751329_s_at) / Fold change (Aza/veh), VPS36 (ProbeSet 11739960_a_at) / Fold change (ACY-1035/veh), VPS36 (ProbeSet 11739960_a_at) / RFU SYPL1 (11715823_x_at) / Fold change /veh SYPL1 (11715823_x_at) / RFU IGFBP7 (11715501_s_at) / Fold change /veh IGFBP7 (11715501_s_at) / RFU REEP3 (11722064_at) / Fold change /veh REEP3 (11722064_at) / RFU IGLL1 (11728026_x_at) / Fold change /veh IGLL1 (11728026_x_at): dose or concentration left out as unconfirmed
Settings: MV-4-11 cells, 48 hours

Q: For Nc1ncn([C@@H]2O[C@H](CO)[C@@H](O)[C@H]2O)c(=O)n1 [azacitidine], which “Fold change /veh PODN (11730768_x_at)” value is on record?
A: 1.12
